Assay results: PubChem BioAssay AID463203 (Broad Institute, 2010)
Calls of active or inactive are those of the source.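 The calls were made as follows: active = more than half of replicate measurements showing over 20% loss of kinase signal relative to plate controls; inconclusive = some but at most half of replicates over 20% loss; inactive = no replicate over 20% signal loss.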

Molecular target: Glycogen synthase kinase-3 alpha (Homo sapiens) (UniProt P49840)
Test: concentration-response blocking of human GSK3A – biochemical, luminescence, cell-free homogeneous, retest, dose response (AID 463203)
Conditions: GSK-3 alpha enzyme, ADP-Glo luminescence, 60 min

Glycogen synthase kinase-3 alpha (Homo sapiens), sequence (P49840 whole entry, looked up): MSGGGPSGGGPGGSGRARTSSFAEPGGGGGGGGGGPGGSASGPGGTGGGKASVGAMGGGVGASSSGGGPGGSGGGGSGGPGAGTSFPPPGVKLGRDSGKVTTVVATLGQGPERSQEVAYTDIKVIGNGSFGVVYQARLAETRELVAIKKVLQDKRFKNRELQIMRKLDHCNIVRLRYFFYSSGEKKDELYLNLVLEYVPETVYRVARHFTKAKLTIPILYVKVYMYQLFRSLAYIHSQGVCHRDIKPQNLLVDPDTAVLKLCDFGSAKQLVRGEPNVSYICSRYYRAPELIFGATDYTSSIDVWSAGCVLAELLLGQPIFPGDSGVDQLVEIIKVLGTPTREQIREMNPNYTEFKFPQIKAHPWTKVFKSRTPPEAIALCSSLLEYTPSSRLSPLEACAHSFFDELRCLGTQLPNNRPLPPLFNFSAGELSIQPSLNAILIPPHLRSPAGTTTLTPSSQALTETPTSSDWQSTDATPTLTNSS

SMILES | AC50
C=CCn1c(O)c(/C(C)=N/N2CCCCCC2)c(=O)[nH]c1=O | 28.8 µM
CC(C)CC(=O)Nc1ccc(-c2cn3cccnc3n2)cc1 | > 30 µM (inactive)
COCCCNc1nc2ccccc2[nH]c1=O | > 30 µM (inactive)
Cc1ccc(-c2nc3ncccn3c2Nc2ccc3c(c2)OCCO3)cc1 | > 30 µM (inactive)
N#C/C(=C/Nc1ccccc1)c1ccsc1 | > 30 µM (inactive)
Cc1cccc(NC(=O)CSc2nc3[nH]ncc3c(=O)n2-c2ccccc2)c1 | > 30 µM (inactive)
O=Nc1c(-c2c(O)[nH]c3cc(Br)ccc23)[nH]c2ccccc12 | < 0.0135 µM
O=C(Nc1ccccc1C(=O)N1CCOCC1)c1cccnc1 | > 30 µM (inactive)
COc1ccc(-c2oc3cc(O)c(OC)c(O)c3c(=O)c2OC)cc1 | > 30 µM (inactive)
O=Cc1cn(-c2ccccc2)nc1-c1cccnc1 | > 30 µM (inactive)
COc1ccc(-c2nsc3c(N4CCCCC4C)ncnc23)cc1 (stereo not drawn) | > 30 µM (inactive)
S=C(NCCc1ccccc1)Nc1cccc2cnccc12 | > 30 µM (inactive)
O=C(NC1(C(F)(F)F)NC(=O)N(Cc2cccnc2)C1=O)c1ccccc1 (stereo not drawn) | > 30 µM (inactive)
O=c1[nH]cnc(O)c1N=Nc1ccccc1 | 9.87 µM
CC(=NCCO)c1c(O)n(C2CCCCC2)c(=O)[nH]c1=O | 26.9 µM
CCN(CC)CCCNc1ncnc2scc(-c3ccc(F)cc3)c12 | > 30 µM (inactive)
CCn1c(SCC(=O)Nc2nc3ccc(OC)cc3s2)nnc1-c1ccoc1C | 5.81 µM
O=C(NCCCn1ccnc1)C(Cl)(Cl)Cl | > 30 µM (inactive)
O=c1ccc(-c2nc3ccccc3n2Cc2ccc(Cl)cc2)c[nH]1 | > 30 µM (inactive)
C/C(=N\NC(=O)CSc1nc(C)[nH]c1[N+](=O)[O-])c1ccc(F)cc1 | > 30 µM (inactive)
CN(Cc1ccccc1)c1ncnc(N)c1[N+](=O)[O-] | 18.8 µM
COc1ccc(OC)c(S(=O)(=O)N2CCN(C(=O)c3cc(C4CC4)nn3-c3ccccc3)CC2)c1 | > 30 µM (inactive)

SMILES | AC50
COc1ccc(C(=O)c2c(C(F)(F)F)oc3c2C(=O)c2ccccc2C3=O)cc1 | > 30 µM (inactive)
CC1CCCCC12NC(=O)N(CC(=O)Nc1sccc1C(N)=O)C2=O (stereo not drawn) | > 30 µM (inactive)
COc1ccc(O)c(-c2nc(N)nc(N)n2)c1 | 3.88 µM
Cc1ccc(CNc2ccc([N+](=O)[O-])cc2C(N)=O)cc1 | > 30 µM (inactive)
CCC(=NCCCO)c1c(O)n(-c2ccc(OC)cc2)c(=O)[nH]c1=O | > 30 µM (inactive)
CC(=O)Nc1ccc2nsnc2c1 | > 30 µM (inactive)
CC1=C(C(=O)Nc2cccc(F)c2)C(c2ccsc2)C2=C(CC(C)(C)CC2=O)N1 (stereo not drawn) | > 30 µM (inactive)
COc1ccc(Nc2nc(N)nc(COc3ccc(OC)cc3)n2)cc1 | > 30 µM (inactive)
c1ccc2c(c1)ccc1nnc(-c3ccc4c(c3)OCO4)n12 | > 30 µM (inactive)
COc1cc(/C=N/NC(=O)c2nnn(-c3nonc3N)c2-c2cccs2)ccc1O | 4.37 µM
Cc1ccc(C2C3=C(CCCC3=O)Nc3[nH]c(=S)[nH]c(=O)c32)cc1 (stereo not drawn) | > 30 µM (inactive)
COc1cc(-c2nnc(SCc3c(F)cccc3Cl)o2)cc(OC)c1OC | > 30 µM (inactive)
O=[N+]([O-])c1ccc(COc2ccccc2/C=N/O)cc1 | > 30 µM (inactive)
COC(=O)c1cn(-c2ccccc2)nc1-c1cccnc1 | > 30 µM (inactive)
Cn1c(=O)c2c([nH]c(=O)n2C)n(Cc2ccccc2)c1=O | > 30 µM (inactive)
Fc1ccc(Nc2ncnc3sccc23)cc1 | > 30 µM (inactive)
CCCCN(CCCC)c1cn[nH]c(=O)c1Cl | 11.2 µM
O=c1c(OC2OC(CO)C(O)C(O)C2O)c(-c2ccc(O)c(O)c2)oc2cc(O)cc(O)c12 (stereo not drawn) | > 30 µM (inactive)
O=C1N=C(C=c2ccc(=Cc3[nH]c(=O)[nH]c3O)cc2)C(=O)N1 | 15.5 µM
Cc1cc(C(C#N)c2ccccc2F)n2ncnc2n1 (stereo not drawn) | 1.87 µM
COc1ccc(-c2cc(C(=O)N3CCN(c4ccccc4)CC3)no2)cc1 | > 30 µM (inactive)
